From patent publication US11691986B2, “PTEFB inhibiting macrocyclic compounds” (Bayer Aktiengesellschaft, priority 2017, dated 2023) come the findings set out here.

For one experiment, the target named is T1, CDK2/CycE (Homo sapiens, UniProt P24941).
T1 construct: GST; purchased ProQinase GmbH (Freiburg, Germany); host or cells: insect cells (Sf9)
Description: CDK2/CycE high ATP kinase assay (TR-FRET). The class given is biochemical. As to conditions: 2 mM ATP, Method 2b. Here is the method:
2b. CDK2/CycE High ATP Kinase Assay
CDK2/CycE-inhibitory activity of compounds of the present invention at 2 mM adenosine-tri-phosphate (ATP) was quantified employing the CDK2/CycE TR-FRET (TR-FRET=Time Resolved Fluorescence Energy Transfer) assay as described in the following paragraphs.
Recombinant fusion proteins of GST and human CDK2 and of GST and human CycE, expressed in insect cells (Sf9) and purified by Glutathion-Sepharose affinity chromatography, were purchase from ProQinase GmbH (Freiburg, Germany). As substrate for the kinase reaction biotinylated peptide biotin-Ttds-YISPLKSPYKISEG (C-terminus in amid form) was used which can be purchased e.g. form the company JERINI peptide technologies (Berlin, Germany).
For the assay 50 nl of a 100 fold concentrated solution of the test compound in DMSO was pipetted into either a black low volume 384 well microtiter plate or a black 1536 well microtiter plate (both Greiner Bio-One, Frickenhausen, Germany), 2 μl of a solution of CDK2/CycE in aqueous assay buffer [50 mM Tris/HCl pH 8.0, 10 mM MgCl2, 1.0 mM dithiothreitol, 0.1 mM sodium ortho-vanadate, 0.01% (v/v) Nonidet-P40 (Sigma)] were added and the mixture was incubated for 15 min at 22° C. to allow pre-binding of the test compounds to the enzyme before the start of the kinase reaction. […] The concentration of CDK2/CycE was adjusted depending of the activity of the enzyme lot and was chosen appropriate to have the assay in the linear range, typical concentrations were about 10 ng/ml. The reaction was stopped by the addition of 3 μl of a solution of TR-FRET detection reagents (0.333 μM streptavidine-XL665 [Cisbio Bioassays, Codolet, France] and 1.67 nM anti-RB(pSer807/pSer811)-antibody from BD Pharmingen [#558389] and 2 nM LANCE EU-W1024 labeled anti-mouse IgG antibody [Perkin-Elmer, product no. AD0077, as an alternative a Terbium-cryptate-labeled anti-mouse IgG antibody from Cisbio Bioassays can be used]) in an aqueous EDTA-solution (167 mM EDTA, 0.2% (w/v) bovine serum albumin in 100 mM HEPES pH 7.5).
The resulting mixture was incubated 1 h at 22° C. to allow the formation of complex between the phosphorylated biotinylated peptide and the detection reagents. Subsequently the amount of phosphorylated substrate was evaluated by measurement of the resonance energy transfer from the Eu-chelate to the streptavidine-XL. Therefore, the fluorescence emissions at 620 nm and 665 nm after excitation at 350 nm was measured in a TR-FRET reader, e.g. a Pherastar (BMG Labtechnologies, Offenburg, Germany) or a Viewlux (Perkin-Elmer). The ratio of the emissions at 665 nm and at […] was taken as the measure for the amount of phosphorylated substrate. The data were normalised (enzyme reaction without inhibitor=0% inhibition, all other assay components but no enzyme=100% inhibition).
Background: TR-FRET usually uses a lanthanide donor and a delayed reading to cut background.

The next experiment deals with DU145 cells. Description: Proliferation assay, DU145 (crystal violet). It is filed as cell-based. As to conditions: Homo sapiens, DU-145, 96 h; DU145, 4 days; read-out: Inhibition of DU145 cell proliferation IC50. On the procedure:
(§1) Cultivated tumour cells (HeLa, human cervical tumour cells, ATCC CCL-2; NCI-H460, human non-small cell lung carcinoma cells, ATCC HTB-177; DU 145, hormone-independent human prostate carcinoma cells, ATCC HTB-81; HeLa-MaTu-ADR, multidrug-resistant human cervical carcinoma cells, EPO-GmbH Berlin; Caco-2, human colorectal carcinoma cells, ATCC HTB-37; B16F10, mouse melanoma cells, ATCC CRL-6475) were plated at a density of 5,000 cells/well (DU145, HeLa-MaTu-ADR), 3,000 cells/well (NCI-H460, HeLa), 1,500 cells/well (Caco-2), or 1,000 cells/well (B16F10) in a 96-well multititer plate in 200 μL of their respective growth medium supplemented 10% fetal calf serum. After 24 hours, the cells of one plate (zero-point plate) were stained with crystal violet (see below), while the medium of the other plates was supplemented with the test substances in various concentrations (0 μM, as well as in the range of 0.0001-10 μM; the final concentration of the solvent dimethyl sulfoxide was adjusted to 0.1%) using a Hewlett-Packard HP D300 Digital Dispenser. The cells were incubated for 4 days in the presence of test substances. Cell proliferation was determined by staining the cells with crystal violet: the cells were fixed by adding 20 μl/measuring point of an 11% glutaric aldehyde solution for 15 minutes at room temperature. After three washing cycles of the fixed cells with water, the plates were dried at room temperature. The cells were stained by adding 100 μl/measuring point of a 0.1% crystal violet solution (pH 3.0). After three washing cycles of the stained cells with water, the plates were dried at room temperature. The dye was dissolved by adding 100 μl/measuring point of a 10% acetic acid solution. The extinction was determined by photometry at a wavelength of 595 nm. The change of cell number, in percent, was calculated by normalization of the measured values to the extinction values of the zero-point plate (=0%) and the extinction of the untreated (0 Wm) cells (=100%). The IC50 values (inhibitory concentration at 50% of maximal effect) were determined by means of a 4 parameter fit.

Another experiment has as its system Caco-2 cells. The experiment can be described thus: Proliferation assay, Caco-2 (crystal violet). As to conditions: Homo sapiens, 96 h; Caco-2, 4 days; read-out: Inhibition of Caco-2 cell proliferation IC50. It is filed as cell-based. On the procedure:
as §1

On to `CC1CCCNc2cc(ccc2F)-c2nc(ncc2F)Nc2cc(CS(C)(=O)=O)cc(c2)O1` (racemic) [Example 8, (rac)-3,20-difluoro-14-methyl-10-[(methylsulfonyl)methyl]-13-oxa-5,7,18,25-tetraazatetracyclo[17.3.1.1^2,6.1^8,12]pentacosa-1(23),2(25),3,5,8(24),9,11,19,21-nonaene], for which the IC50 on CDK2/CycE is 464 nM.
With `CS(=N)(=O)Cc1cc2cc(c1)OCCCNc1cc(ccc1F)-c1nc(ncc1F)N2` (racemic) [Example 3, (rac)-3,19-difluoro-10-[(S-methylsulfonimidoyl)methyl]-13-oxa-5,7,17,24-tetraazatetracyclo[16.3.1.1^2,6.1^8,12]tetracosa-1(22),2(24),3,5,8(23),9,11,18,20-nonaene], the IC50 against CDK2/CycE is 829 nM; in the experiment on DU145 cells it was 17 nM; in the experiment with Caco-2 cells it was 20 nM.
The like results for `CC(C)(C)OC(=O)N=S(C)(=O)Cc1cc2cc(c1)OCCCCNc1cc(ccc1F)-c1nc(ncc1F)N2` (racemic) [Example 1, (rac)-tert-butyl [{[3,20-difluoro-13-oxa-5,7,18,25-tetraazatetracyclo[17.3.1.1^2,6.1^8,12]pentacosa-1(23),2(25),3,5,8(24),9,11,19,21-nonaen-10-yl]methyl}(methyl)oxido-λ^6-sulfanylidene]carbamate] were, in that order, 855 nM, 36 nM and 70 nM.
`CS(=N)(=O)Cc1cc2cc(c1)OCCCCNc1cc(ccc1F)-c1nc(ncc1F)N2` (racemic) [Example 2, (rac)-3,20-difluoro-10-[(S-methylsulfonimidoyl)methyl]-13-oxa-5,7,18,25-tetraazatetracyclo[17.3.1.1^2,6.1^8,12]pentacosa-1(23),2(25),3,5,8(24),9,11,19,21-nonaene]: the IC50 was found to be 155 nM on CDK2/CycE, 4.5 nM in the experiment on DU145 cells and 8.4 nM with Caco-2 cells.
